Results on ten compounds are retold here after ChEMBL document CHEMBL1641384, “QSAR of adenosine receptor antagonists: Exploring physicochemical requirements for binding of pyrazolo[4,3-e]-1,2,4-triazolo[1,5-c]pyrimidine derivatives with human adenosine A(3) receptor subtype” (Bioorg Med Chem Lett, 2011).

This test addresses T1, Adenosine receptor A3 (Homo sapiens, UniProt P0DMS8).
T1 sequence (P0DMS8 whole entry): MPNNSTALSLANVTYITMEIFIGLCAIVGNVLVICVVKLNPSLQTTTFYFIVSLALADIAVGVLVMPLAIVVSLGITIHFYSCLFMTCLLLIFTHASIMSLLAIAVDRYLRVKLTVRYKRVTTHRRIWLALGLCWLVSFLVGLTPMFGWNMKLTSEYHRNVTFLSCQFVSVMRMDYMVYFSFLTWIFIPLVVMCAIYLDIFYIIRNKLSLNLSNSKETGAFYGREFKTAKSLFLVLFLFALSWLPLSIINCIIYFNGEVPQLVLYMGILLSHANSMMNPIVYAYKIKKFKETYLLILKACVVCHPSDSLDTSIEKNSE
The experiment in a line: Displacement of [3H]MRE3008-F20 from human adenosine A3 receptor expressed in CHO cells after 120 mins. Type of test: cell-based. A general note: Loss of bound radioactivity is the signal in a displacement assay; it reports binding, not function.

The Ki is a measure of affinity in units of concentration, obtained from inhibition or displacement. High values mean weaker binding, low ones tighter binding. For `CCCn1cc2c(nc(NC(=O)Nc3cccc(Cl)c3)n3nc(-c4ccco4)nc23)n1`, the inhibitory constant (Ki) is 1.58 nM.

For the compound `CCn1cc2c(nc(N)n3nc(-c4ccco4)nc23)n1`, the affinity, expressed as Ki, was 407 nM.

The compound `CCn1cc2c(nc(NC(=O)Nc3cccc(Cl)c3)n3nc(-c4ccco4)nc23)n1` gave a Ki of 0.912 nM. Next, `CCn1cc2c(nc(NC(=O)Nc3ccc4c(c3)OCO4)n3nc(-c4ccco4)nc23)n1`: 0.269 nM.

`CCn1cc2c(nc(NC(=O)Nc3ccc(OC)cc3)n3nc(-c4ccco4)nc23)n1`: the Ki is 0.794 nM. This Ki is about 3-fold higher than that of the compound before. The value for `CCCn1cc2c(nc(N)n3nc(-c4ccco4)nc23)n1` was 331 nM. Take `CCCn1cc2c(nc(NC(=O)Nc3ccc4c(c3)OCO4)n3nc(-c4ccco4)nc23)n1`: the Ki is 0.302 nM. The value for `Cn1cc2c(nc(NC(=O)Nc3ccc4c(c3)OCO4)n3nc(-c4ccco4)nc23)n1` was 0.24 nM; that for `CCCCn1cc2c(nc(NC(=O)Nc3ccc4c(c3)OCO4)n3nc(-c4ccco4)nc23)n1` was 0.501 nM. Next, `CCCCCCCCn1cc2c(nc(NC(=O)Nc3ccc(C)cc3)n3nc(-c4ccco4)nc23)n1`: 4.07 nM.
